# Tests used:
# [1] = Controlled double-blind human study, body weight, body fat and resting metabolic rate (Example IV, Table D); format: in vivo, humans
# Protocol: (§1) In view of the findings of the foregoing examples, a human study was carried out.
# (§2) In a controlled double-blind study, the effects of feeding HMB on loss of urinary nitrogen, blood cholesterol and immune function in normal humans were tested. This study also measured blood components that reflect liver, kidney and tissue metabolism. In addition further measurements of nitrogen metabolism and immune function were implemented. All measurements were made in a controlled dietary situation and under blinded conditions. Normal male subjects were used who had been screened for normalcy. Ca-HMB was administered in 250 mg capsules. The subjects were instructed to take the capsules in 4 equal doses daily (with meals and at bed time). The subject ate all their meals under controlled conditions. Normal diets were used, and the amount of the diets was controlled to maintain equal and substantially constant nitrogen intake. The subjects had blood drawn before the morning meal or before they took the morning HMB dose. Each subject was studied twice: once with a placebo and once with HMB.
# [2] = test system: plasma cholesterol and triglycerides; experiment: Hamster feeding study, plasma cholesterol and triglycerides (Example I, Table A); format: in vivo, hamsters; details: for % Change HDL cholesterol / % Change HDL/LDL / % Change LDL cholesterol / % Change Total cholesterol / % Change Triglycerides: HMB vs control
# Protocol: A preliminary experiment was carried out using hamsters as the test animal and Na-HMB as the therapeutic agent. The experimental details and the results obtained are described as follows.
# Pregnant Female hamsters were housed and allowed to give birth. At three weeks of age, litters were subdivided into pairs within a sex. The pairs of hamsters were then assigned randomly a purified diet based on casein and cornstarch with either contained 0.1% NaCl (control) or one containing 0.1% Na-HMB (HMB). They were maintained on this diet for 6 weeks at which time they were killed by decapitation and blood collected into EDTA containing tubes. Blood was separated by centrifugation and plasma collected. The unfrozen plasma was treated with an LDL precipitating agent, centrifuged and the supernatant collected. The whole plasma and supernatant were assayed for cholesterol by an enzymatic method. Plasma cholesterol estimated total cholesterol while the supernatant represented HDL cholesterol. LDL cholesterol was estimated by the formula: LDL-Cholesterol=(Total cholesterol)-(HDL cholesterol)-(triglycerides X 0.2). Total triglycerides in plasma were estimated by an enzymatic assay.
# blood cholesterol = experiment: Controlled double-blind human study, blood cholesterol (Example IV, Table D); format: in vivo, humans
# Protocol: as §1, §2
# [3] = Human dose-response study, blood HMB (Example V); format: in vivo, humans
# Protocol: (§3) Higher dose levels than in Example IV of Ca-HMB were tested in humans. The objective was to obtain an indication of whether higher doses could be safely administered, and also whether higher doses might provide a greater reduction in total cholesterol and LDL cholesterol.
# (§4) Normal humans were used in the study. Ca-HMB was administered in 250 mg capsules, and the subjects were instructed to take the capsules in 4 equal doses daily. No control of diet was attempted except they were instructed to eat as they normally would. On alternate days the subjects had blood drawn before the morning meal and before they took the morning HMB dose. Four subjects were studied for dose level of 05., 1, 2 and 4 grams per day.
# [4] = test system: acetate incorporation into cholesterol by the rat liver; details: 0.5 g/kg body weight for 2 and 4 days; cited from earlier work
# aorta = experiment: Pig feeding study, aorta streaking (pre-atherosclerotic lesions) (Example III, Table C); format: in vivo, pigs; details: for Aorta Streaking: 0 least severe to 3.2 most severe, control 1.87
# Protocol: A further large mammal study was carried out with pigs. Pigs comprise test animals which are more similar in certain respects to humans than ruminants.
# Control: 60 g. of calcium
# The pigs were housed in pens of two animals each and were allowed ad libitum access to food and water. Pigs were approximately 160 lbs. at the start of the experiment and were 240 lbs. at the end. All pigs were castrate males. At day 28 and day 43 of the experiment blood was collected from the anterior vena cava by venipuncture. Blood was collected into EDTA containing tubes, centrifuged and frozen until analyzed. At approximately 100 days of the experiment half of the animals (32) were slaughtered, and at 120 days the remaining 32 animals were slaughtered. At the time of slaughter the abdominal aorta was dissected out and external fat removed. The aorta was then split lengthwise and 1/2 fixed in formaldehyde for 48 hours. At this time aortas were removed, stretched over a 6 inch stick, washed in ethanol and stained with a lipid stain for 2 hours. After a 1 hour wash aortas were blotted and examined. All the aortas from a group were laid out on a white bench and arranged in order from least sever to most sever. The least sever had no dark red streaks on the aorta or around the small vertebral vessels leaving the aorta. The most sever lesions had multiple streaks in the middle of the aorta and dark red deposits in turbulent areas such as the branching of vessels from the aorta. The ordered aortas were then assigned a consecutive decimal number. The first (least severe) was assigned 0 and the most severe was assigned 3.2 Plasma cholesterol and triglycerides were measured by an enzyme-colorimetric assay (Sigma).
# statistical analysis was accomplished by the general linear model procedure of the Statistical Analysis System (SAS). The model included the main effects of treatment and pen number. T-tests were conducted from the ANOVA standard error, to compare the HMB treatments to the control. […] It appeared that HMB can partially prevent the formation of pre-atherosclerotic lesions. No effect of KIC was noted relative to any parameter.
# [5] = Human dose-response study, adverse effects (Example V); format: in vivo, humans; details: 0.5 to 4 g per day
# Protocol: as §3, §4
# [6] = HMB change net of placebo-group change
# [7] = females, 0.1% Na-HMB diet, 6 weeks
# [8] = males, 0.1% Na-HMB diet, 6 weeks
smiles,measurement,setting,value
"CC(C)(O)CC(=O)O [HMB, β-hydroxy-β-methylbutyric acid]","% Net Effect HMB, % Body fat",[1]; [6],-9%
same,"% Net Effect HMB, Resting metabolic rate",[1]; [6],0%
same,"% Net Effect HMB, Weight",[1]; [6],1.4%
same,Body weight,[1]; HMB treatment,did not change
same,body fat,[1]; HMB treatment,did not change
same,resting metabolic rate,[1]; HMB treatment,did not change
same,% Change Trt. % Body fat,[1]; control to HMB treatment,-12%
same,% Change Trt. Resting metabolic rate,[1]; control to HMB treatment,4%
same,% Change Trt. Weight,[1]; control to HMB treatment,1.4%
same,% Body fat (skin fold),"[1]; treated group on HMB, Ca HMB 1.0 grams/24 hours, pre-treatment control 12.5",11.0%
same,resting metabolic rate,"[1]; treated group on HMB, Ca HMB 1.0 grams/24 hours, pre-treatment control 74.8",77.8 KCal/mw
same,Weight,"[1]; treated group on HMB, Ca HMB 1.0 grams/24 hours, pre-treatment control 176",179 lbs.
same,HDL cholesterol,"[2]; females, 0.1% Na-HMB diet, 6 weeks, control 125",132 mg %
same,Total cholesterol,"[2]; females, 0.1% Na-HMB diet, 6 weeks, control 237",228 mg %
same,Triglycerides,"[2]; females, 0.1% Na-HMB diet, 6 weeks, control 240",212 mg %
same,HDL/LDL,"[2]; females, 0.1% Na-HMB diet, 6 weeks, control .51",.41
same,LDL cholesterol,"[2]; females, 0.1% Na-HMB diet, 6 weeks, estimated by formula, control 64",53 mg %
same,% Change HDL cholesterol,[2]; [7],+5%
same,% Change HDL/LDL,[2]; [7],-20%
same,% Change LDL cholesterol,[2]; [7],-17%
same,% Change Total cholesterol,[2]; [7],-4%
same,% Change Triglycerides,[2]; [7],-11%
same,HDL cholesterol,[2]; hamsters,a trend to increase HDL cholesterol
same,LDL cholesterol,[2]; hamsters,markedly lower LDL cholesterol
same,ratio of LDL/HDL,[2]; hamsters,positively affected
same,HDL cholesterol,"[2]; males, 0.1% Na-HMB diet, 6 weeks, control 111",118 mg %
same,Total cholesterol,"[2]; males, 0.1% Na-HMB diet, 6 weeks, control 217",208 mg %
same,Triglycerides,"[2]; males, 0.1% Na-HMB diet, 6 weeks, control 232",226 mg %
same,HDL/LDL,"[2]; males, 0.1% Na-HMB diet, 6 weeks, control .53",.38
same,LDL cholesterol,"[2]; males, 0.1% Na-HMB diet, 6 weeks, estimated by formula, control 59",45 mg %
same,% Change HDL cholesterol,[2]; [8],+5%
same,% Change HDL/LDL,[2]; [8],-28%
same,% Change LDL cholesterol,[2]; [8],-24%
same,% Change Total cholesterol,[2]; [8],-4%
same,% Change Triglycerides,[2]; [8],-2%
same,increase of HDL cholesterol,blood cholesterol; 2 g of HMB daily for two weeks,11%
same,reduction of LDL cholesterol,blood cholesterol; 2 g of HMB daily for two weeks,10%
same,reduction of total cholesterol,blood cholesterol; 2 g of HMB daily for two weeks,6%
same,"% Net Effect HMB, HDL Cholesterol",blood cholesterol; [6],11%
same,"% Net Effect HMB, LDL Cholesterol",blood cholesterol; [6],-10%
same,"% Net Effect HMB, LDL/HDL",blood cholesterol; [6],-25%
same,"% Net Effect HMB, Total Cholesterol",blood cholesterol; [6],-6%
same,% Change Trt. HDL Cholesterol,blood cholesterol; control to HMB treatment,3%
same,% Change Trt. LDL Cholesterol,blood cholesterol; control to HMB treatment,-8%
same,% Change Trt. LDL/HDL,blood cholesterol; control to HMB treatment,-12%
same,% Change Trt. Total Cholesterol,blood cholesterol; control to HMB treatment,-10%
same,decrease of ratio of LDL to HDL,blood cholesterol; in two weeks,25%
same,LDL cholesterol,"blood cholesterol; treated group on HMB, Ca HMB 1.0 grams/24 hours, calculated, pre-treatment control 118",107
same,LDL/HDL,"blood cholesterol; treated group on HMB, Ca HMB 1.0 grams/24 hours, pre-treatment control 2.38",2.10
same,HDL cholesterol,"blood cholesterol; treated group on HMB, Ca HMB 1.0 grams/24 hours, pre-treatment control 49.5",50.9
same,Total cholesterol,"blood cholesterol; treated group on HMB, Ca HMB 1.0 grams/24 hours, pre-treatment control 187",169
same,Blood HMB,[3]; 0.5 to 4 g per day,increased in a dose-responsive manner
same,increase in blood HMB,[3]; 4 grams per day,very large increase
same,rate of acetate incorporation into cholesterol by the rat liver,[4],not significantly lowered
same,deposits of fat in the aorta,aorta; HMB-fed pigs,lower deposits of fat in the aorta
same,Aorta Streaking,"aorta; dietary .01%, HMB C vs. .01% p .12",1.23
same,Aorta Streaking,"aorta; dietary .05%, HMB p .06, KIC ns",1.18
same,adverse affects,[5],no adverse affects
same,complaint noted with several patients,[5],being hungrier than normal

# Source: patent US5360613A, “Method of reducing blood levels of total cholesterol and low-density lipoprotein cholesterol” (Iowa State University Research Foundation, Inc., priority 1993, dated 1994)
